Measured values reported in the NIST ThermoML archive (doi:10.1021/je800026p).

Assay: xn = mol fraction of the nth substance listed
Details: 101 kPa, Liquid; for speed of sound: Sing-around technique in a fixed-path interferometer; for mass density: Vibrating tube method

CCCCCCOCCOCCO [2-(2-hexyloxyethoxy)ethanol] + CCCCN(CCCC)CCCC
Details | mass density, 288.15 K [kg/m3] | mass density, 293.15 K [kg/m3] | mass density, 298.15 K [kg/m3] | mass density, 303.15 K [kg/m3] | mass density, 308.15 K [kg/m3] | speed of sound, 288.15 K [m/s] | speed of sound, 293.15 K [m/s] | speed of sound, 298.15 K [m/s] | speed of sound, 303.15 K [m/s] | speed of sound, 308.15 K [m/s]
x1 = 0.1168 | 797.427 | 793.696 | 789.759 | 785.812 | 782.055 | 1294 | 1274.9 | 1256 | 1237.3 | 1219
x1 = 0.1659 | 804.49 | 800.716 | 796.756 | 792.8 | 788.975 | 1298.2 | 1279.2 | 1260.3 | 1241.7 | 1223.4
x1 = 0.2092 | 810.815 | 806.993 | 803.027 | 799.078 | 795.2 | 1302.1 | 1283.1 | 1264.3 | 1245.8 | 1227.5
x1 = 0.2589 | 818.158 | 814.291 | 810.334 | 806.371 | 802.458 | 1306.8 | 1287.9 | 1269.2 | 1250.8 | 1232.5
x1 = 0.3155 | 826.596 | 822.69 | 818.738 | 814.795 | 810.825 | 1312.6 | 1293.8 | 1275.2 | 1256.8 | 1238.6
x1 = 0.3564 | 832.755 | 828.829 | 824.867 | 820.924 | 816.944 | 1316.9 | 1298.2 | 1279.7 | 1261.4 | 1243.2
x1 = 0.383 | 836.791 | 832.842 | 828.881 | 824.93 | 820.957 | 1319.8 | 1301.2 | 1282.7 | 1264.5 | 1246.4
x1 = 0.4544 | 847.683 | 843.729 | 839.761 | 835.783 | 831.821 | 1328 | 1309.5 | 1291.2 | 1273.2 | 1255.2
x1 = 0.5108 | 856.418 | 852.463 | 848.467 | 844.479 | 840.528 | 1334.9 | 1316.5 | 1298.3 | 1280.4 | 1262.6
x1 = 0.5568 | 863.63 | 859.691 | 855.668 | 851.665 | 847.701 | 1340.7 | 1322.4 | 1304.3 | 1286.5 | 1268.8
x1 = 0.6107 | 872.206 | 868.299 | 864.217 | 860.198 | 856.228 | 1347.7 | 1329.6 | 1311.6 | 1294 | 1276.4
x1 = 0.6683 | 881.543 | 877.641 | 873.531 | 869.475 | 865.486 | 1355.6 | 1337.5 | 1319.7 | 1302.2 | 1284.8
x1 = 0.6924 | 885.505 | 881.587 | 877.468 | 873.41 | 869.396 | 1358.9 | 1340.9 | 1323.2 | 1305.8 | 1288.4
x1 = 0.7544 | 895.808 | 891.893 | 887.746 | 883.674 | 879.592 | 1367.8 | 1350 | 1332.3 | 1315.2 | 1297.8
x1 = 0.7963 | 902.873 | 898.935 | 894.791 | 890.73 | 886.574 | 1373.9 | 1356.2 | 1338.7 | 1321.6 | 1304.4
x1 = 0.858 | 913.335 | 909.366 | 905.245 | 901.206 | 896.983 | 1383.2 | 1365.7 | 1348.3 | 1331.5 | 1314.2
x1 = 0.9079 | 921.784 | 917.773 | 913.7 | 909.674 | 905.434 | 1390.9 | 1373.6 | 1356.4 | 1339.6 | 1322.3
x1 = 0.9553 | 929.676 | 925.674 | 921.63 | 917.622 | 913.46 | 1398.4 | 1381.3 | 1364.2 | 1347.6 | 1330.2
